These results are taken from ChEMBL document CHEMBL5465560, “Selectivity Literature for EUbOPEN Chemogenomic Library” (2024).

The target in assay [1] is Vascular endothelial growth factor receptor 2 (Homo sapiens, UniProt P35968). Put plainly: Selectivity interaction (KinomeScan (DiscoverX)) EUB0000666a KDR. The conditions noted are these: at 10 µM.
Assay [2] deals with T1, Beta-adrenergic receptor kinase 1 (Homo sapiens) (UniProt P25098).
T1 sequence (whole entry): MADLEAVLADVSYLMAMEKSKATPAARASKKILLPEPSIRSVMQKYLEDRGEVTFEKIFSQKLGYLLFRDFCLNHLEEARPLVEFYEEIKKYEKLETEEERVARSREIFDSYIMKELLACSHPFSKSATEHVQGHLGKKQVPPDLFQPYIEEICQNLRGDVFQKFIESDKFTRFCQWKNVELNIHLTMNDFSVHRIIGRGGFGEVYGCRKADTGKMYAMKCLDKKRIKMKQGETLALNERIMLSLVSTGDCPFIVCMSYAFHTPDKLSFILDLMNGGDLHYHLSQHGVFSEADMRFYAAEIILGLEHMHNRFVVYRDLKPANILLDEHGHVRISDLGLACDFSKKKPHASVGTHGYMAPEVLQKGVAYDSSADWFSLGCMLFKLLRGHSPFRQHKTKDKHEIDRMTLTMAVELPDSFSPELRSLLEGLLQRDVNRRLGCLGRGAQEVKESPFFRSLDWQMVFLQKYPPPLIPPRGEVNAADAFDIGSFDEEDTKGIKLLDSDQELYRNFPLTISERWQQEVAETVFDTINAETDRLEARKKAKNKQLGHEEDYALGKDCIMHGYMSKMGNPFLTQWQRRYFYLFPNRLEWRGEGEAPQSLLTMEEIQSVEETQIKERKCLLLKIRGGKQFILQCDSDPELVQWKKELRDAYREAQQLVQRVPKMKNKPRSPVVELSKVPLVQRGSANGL
Description: Selectivity interaction (KinomeScan (DiscoverX)) EUB0001079a ADRBK1. The conditions noted are these: at 1 µM.

Assay [3] concerns Epidermal growth factor receptor (Homo sapiens), P00533 [UNDEFINED MUTATION]. Put plainly: Selectivity interaction (KinomeScan (DiscoverX)) EUB0001619a EGFR. The conditions noted are these: at 1 µM.
The target of assay [4] is Rho-associated protein kinase 1 (Homo sapiens) (UniProt Q13464). Description: Selectivity interaction (ActivX KiNativ screen (ex vivo kinase selectivity in human PBMCs)) EUB0001619a ROCK1. As to conditions: PBMC, at 1 µM. The format is cell-based.
Assay [5] deals with T2, Phosphorylase b kinase gamma catalytic chain, liver/testis isoform (Homo sapiens) (UniProt P15735).
T2 sequence (whole entry): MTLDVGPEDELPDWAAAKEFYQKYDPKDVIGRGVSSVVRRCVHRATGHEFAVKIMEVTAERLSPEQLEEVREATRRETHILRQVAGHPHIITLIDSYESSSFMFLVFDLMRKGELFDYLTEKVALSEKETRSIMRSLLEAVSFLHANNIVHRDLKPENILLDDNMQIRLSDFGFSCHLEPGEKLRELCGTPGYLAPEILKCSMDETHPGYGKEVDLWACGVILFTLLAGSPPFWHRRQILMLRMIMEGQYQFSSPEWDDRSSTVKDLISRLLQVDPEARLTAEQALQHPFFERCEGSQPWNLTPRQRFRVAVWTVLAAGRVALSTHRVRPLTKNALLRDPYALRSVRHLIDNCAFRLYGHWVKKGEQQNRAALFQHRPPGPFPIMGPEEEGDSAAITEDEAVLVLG
Put plainly: Selectivity interaction (ActivX KiNativ screen (kinase selectivity in THP-1 cell lysates)) EUB0000639a PHKG2. In kind it is subcellular. The conditions noted are these: lysate.

Assay [6] addresses Cyclin-dependent kinase 14 (Homo sapiens) (UniProt O94921). Put plainly: Selectivity interaction (KinomeScan (DiscoverX)) EUB0000695a CDK14. As to conditions: at 100 nM.
Assay [7] relates to Leucine-rich repeat serine/threonine-protein kinase 2 (Homo sapiens), Q5S007 [G2019S]. Put plainly: (§1) Selectivity interaction (ProQinase) EUB0000171b LRRK2.
The test system of assay [8] is Leucine-rich repeat serine/threonine-protein kinase 2 (Homo sapiens), Q5S007 [I2020T]. The assay is described as §1.
Assay [9] deals with Leucine-rich repeat serine/threonine-protein kinase 2 (Homo sapiens, UniProt Q5S007). The assay is described as §1.
Assay [10] has as its system Leucine-rich repeat serine/threonine-protein kinase 2 (Homo sapiens), Q5S007 [R1441C]. Described as §1.
In assay [11] the target is Casein kinase I isoform gamma-3 (Homo sapiens) (UniProt Q9Y6M4). Description: Selectivity interaction (KinomeScan (DiscoverX)) EUB0000092b CSNK1G3. As to conditions: at 10 µM.
Assay [12] addresses Serine/threonine-protein kinase Nek7 (Homo sapiens) (UniProt Q8TDX7). Description: Selectivity interaction (KinomeScan (DiscoverX)) EUB0000045b NEK7.
The target of assay [13] is T3, Myosin light chain kinase family member 4 (Homo sapiens) (UniProt Q86YV6).
T3 sequence (whole entry): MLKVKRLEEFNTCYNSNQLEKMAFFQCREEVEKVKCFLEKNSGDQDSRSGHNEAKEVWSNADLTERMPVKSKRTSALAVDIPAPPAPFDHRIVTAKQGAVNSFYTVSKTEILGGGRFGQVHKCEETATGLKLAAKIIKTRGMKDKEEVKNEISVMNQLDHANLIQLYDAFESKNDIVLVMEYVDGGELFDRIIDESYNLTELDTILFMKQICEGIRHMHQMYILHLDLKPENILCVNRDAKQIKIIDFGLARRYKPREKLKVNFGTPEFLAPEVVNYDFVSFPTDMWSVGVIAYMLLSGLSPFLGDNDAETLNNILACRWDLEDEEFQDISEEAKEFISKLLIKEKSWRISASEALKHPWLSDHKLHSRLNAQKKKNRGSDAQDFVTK
Description: Selectivity interaction (KinomeScan (DiscoverX)) EUB0000045b MYLK4.

Assay [14] deals with T4, Dual specificity mitogen-activated protein kinase kinase 7 (Homo sapiens) (UniProt O14733).
T4 sequence (whole entry): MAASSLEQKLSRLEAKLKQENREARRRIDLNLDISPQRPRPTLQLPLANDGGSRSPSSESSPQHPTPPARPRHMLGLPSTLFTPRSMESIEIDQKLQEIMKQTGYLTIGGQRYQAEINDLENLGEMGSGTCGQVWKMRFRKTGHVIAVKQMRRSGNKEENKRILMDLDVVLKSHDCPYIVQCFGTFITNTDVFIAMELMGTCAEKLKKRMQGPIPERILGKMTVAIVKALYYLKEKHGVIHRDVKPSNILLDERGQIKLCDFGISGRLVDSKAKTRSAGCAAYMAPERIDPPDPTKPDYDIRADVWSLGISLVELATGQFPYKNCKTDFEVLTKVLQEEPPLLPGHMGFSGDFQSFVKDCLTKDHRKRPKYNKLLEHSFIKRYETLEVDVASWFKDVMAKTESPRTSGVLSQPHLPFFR
Description: Selectivity interaction (Upstate Kinase Profiler service (Millipore)) EUB0000056c MAP2K7. As to conditions: at 1 µM.

Leucine-rich repeat serine/threonine-protein kinase 2 (Homo sapiens), Q5S007 [G2019S], sequence (Q5S007 whole entry G2019S): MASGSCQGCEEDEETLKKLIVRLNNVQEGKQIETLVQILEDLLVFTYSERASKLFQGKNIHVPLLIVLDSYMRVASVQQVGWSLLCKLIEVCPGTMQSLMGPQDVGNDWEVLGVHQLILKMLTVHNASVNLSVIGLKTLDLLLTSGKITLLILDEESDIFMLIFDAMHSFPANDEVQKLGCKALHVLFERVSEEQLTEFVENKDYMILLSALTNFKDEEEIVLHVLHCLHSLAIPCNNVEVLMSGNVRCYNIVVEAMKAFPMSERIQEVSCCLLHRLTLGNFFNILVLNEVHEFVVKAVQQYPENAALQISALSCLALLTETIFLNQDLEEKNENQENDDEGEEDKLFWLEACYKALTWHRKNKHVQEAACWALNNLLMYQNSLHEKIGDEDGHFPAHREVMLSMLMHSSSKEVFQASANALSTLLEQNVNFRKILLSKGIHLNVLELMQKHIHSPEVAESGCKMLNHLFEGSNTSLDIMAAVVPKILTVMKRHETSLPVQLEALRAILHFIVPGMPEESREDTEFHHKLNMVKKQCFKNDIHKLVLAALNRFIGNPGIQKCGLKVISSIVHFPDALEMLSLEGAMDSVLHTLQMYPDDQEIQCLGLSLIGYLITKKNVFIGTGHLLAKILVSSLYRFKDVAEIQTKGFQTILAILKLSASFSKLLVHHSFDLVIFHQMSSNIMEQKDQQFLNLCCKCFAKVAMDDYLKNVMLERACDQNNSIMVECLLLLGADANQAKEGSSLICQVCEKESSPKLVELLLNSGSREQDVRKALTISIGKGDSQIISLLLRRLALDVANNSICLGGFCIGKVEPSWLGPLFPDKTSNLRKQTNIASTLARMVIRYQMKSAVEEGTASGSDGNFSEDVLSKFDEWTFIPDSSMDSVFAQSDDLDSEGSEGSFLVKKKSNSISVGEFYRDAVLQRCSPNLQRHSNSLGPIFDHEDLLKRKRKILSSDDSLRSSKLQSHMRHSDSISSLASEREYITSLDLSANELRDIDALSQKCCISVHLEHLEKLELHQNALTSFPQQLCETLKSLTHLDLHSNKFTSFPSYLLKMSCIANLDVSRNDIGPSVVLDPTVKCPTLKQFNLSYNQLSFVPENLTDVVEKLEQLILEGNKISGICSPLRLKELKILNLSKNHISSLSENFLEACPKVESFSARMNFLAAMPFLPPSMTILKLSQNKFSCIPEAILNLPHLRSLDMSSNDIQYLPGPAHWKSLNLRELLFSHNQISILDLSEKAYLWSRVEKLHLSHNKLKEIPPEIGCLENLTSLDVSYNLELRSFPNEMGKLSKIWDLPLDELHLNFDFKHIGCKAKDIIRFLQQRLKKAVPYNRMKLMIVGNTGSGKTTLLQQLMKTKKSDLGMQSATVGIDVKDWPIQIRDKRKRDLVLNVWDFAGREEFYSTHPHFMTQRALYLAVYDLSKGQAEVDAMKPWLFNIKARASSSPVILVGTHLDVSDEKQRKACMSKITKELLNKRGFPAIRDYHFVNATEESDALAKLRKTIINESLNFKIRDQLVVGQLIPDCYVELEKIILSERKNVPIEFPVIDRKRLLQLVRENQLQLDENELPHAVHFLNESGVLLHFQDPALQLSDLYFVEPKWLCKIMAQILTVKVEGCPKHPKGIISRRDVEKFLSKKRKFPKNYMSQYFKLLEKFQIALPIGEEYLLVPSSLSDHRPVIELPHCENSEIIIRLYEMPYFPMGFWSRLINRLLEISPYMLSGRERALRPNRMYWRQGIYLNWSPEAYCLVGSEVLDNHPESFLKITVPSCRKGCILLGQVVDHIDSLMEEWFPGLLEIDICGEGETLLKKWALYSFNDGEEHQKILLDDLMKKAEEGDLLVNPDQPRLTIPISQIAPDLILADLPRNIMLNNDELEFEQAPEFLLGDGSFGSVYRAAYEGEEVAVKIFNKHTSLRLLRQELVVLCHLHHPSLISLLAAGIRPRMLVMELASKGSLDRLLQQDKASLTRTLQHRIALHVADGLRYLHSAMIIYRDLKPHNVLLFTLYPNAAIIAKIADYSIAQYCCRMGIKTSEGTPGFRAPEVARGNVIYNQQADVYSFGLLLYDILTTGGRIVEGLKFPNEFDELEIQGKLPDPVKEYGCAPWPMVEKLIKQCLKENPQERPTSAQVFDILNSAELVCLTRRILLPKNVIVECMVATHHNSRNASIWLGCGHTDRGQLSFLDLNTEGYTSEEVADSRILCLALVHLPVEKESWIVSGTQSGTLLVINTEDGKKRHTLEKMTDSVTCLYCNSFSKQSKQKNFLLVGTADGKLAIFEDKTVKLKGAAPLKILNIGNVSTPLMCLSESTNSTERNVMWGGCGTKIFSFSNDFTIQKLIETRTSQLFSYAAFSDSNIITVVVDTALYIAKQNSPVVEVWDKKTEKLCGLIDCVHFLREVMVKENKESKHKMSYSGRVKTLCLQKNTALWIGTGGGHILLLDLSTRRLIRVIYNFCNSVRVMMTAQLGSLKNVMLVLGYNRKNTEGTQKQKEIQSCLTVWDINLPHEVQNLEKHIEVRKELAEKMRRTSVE
Serine/threonine-protein kinase Nek7 (Homo sapiens), sequence (Q8TDX7 whole entry, looked up): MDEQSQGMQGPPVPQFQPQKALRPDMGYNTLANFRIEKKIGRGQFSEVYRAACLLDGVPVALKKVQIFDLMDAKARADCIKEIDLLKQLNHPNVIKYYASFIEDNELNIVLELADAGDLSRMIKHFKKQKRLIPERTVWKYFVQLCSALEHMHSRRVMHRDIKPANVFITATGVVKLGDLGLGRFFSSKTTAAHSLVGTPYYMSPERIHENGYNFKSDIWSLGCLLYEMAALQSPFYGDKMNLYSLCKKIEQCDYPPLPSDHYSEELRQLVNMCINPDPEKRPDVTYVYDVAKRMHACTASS
Leucine-rich repeat serine/threonine-protein kinase 2 (Homo sapiens), Q5S007 [I2020T], sequence (Q5S007 whole entry I2020T): as the sequence (Q5S007 whole entry G2019S) above, with S2019G, I2020T counted along it
Leucine-rich repeat serine/threonine-protein kinase 2, sequence (Q5S007 whole entry): as the sequence (Q5S007 whole entry G2019S) above, with S2019G counted along it
Leucine-rich repeat serine/threonine-protein kinase 2 (Homo sapiens), Q5S007 [R1441C], sequence (Q5S007 whole entry R1441C, canonical isoform): as the sequence (Q5S007 whole entry G2019S) above, with R1441C, S2019G counted along it
Vascular endothelial growth factor receptor 2, sequence (P35968 whole entry): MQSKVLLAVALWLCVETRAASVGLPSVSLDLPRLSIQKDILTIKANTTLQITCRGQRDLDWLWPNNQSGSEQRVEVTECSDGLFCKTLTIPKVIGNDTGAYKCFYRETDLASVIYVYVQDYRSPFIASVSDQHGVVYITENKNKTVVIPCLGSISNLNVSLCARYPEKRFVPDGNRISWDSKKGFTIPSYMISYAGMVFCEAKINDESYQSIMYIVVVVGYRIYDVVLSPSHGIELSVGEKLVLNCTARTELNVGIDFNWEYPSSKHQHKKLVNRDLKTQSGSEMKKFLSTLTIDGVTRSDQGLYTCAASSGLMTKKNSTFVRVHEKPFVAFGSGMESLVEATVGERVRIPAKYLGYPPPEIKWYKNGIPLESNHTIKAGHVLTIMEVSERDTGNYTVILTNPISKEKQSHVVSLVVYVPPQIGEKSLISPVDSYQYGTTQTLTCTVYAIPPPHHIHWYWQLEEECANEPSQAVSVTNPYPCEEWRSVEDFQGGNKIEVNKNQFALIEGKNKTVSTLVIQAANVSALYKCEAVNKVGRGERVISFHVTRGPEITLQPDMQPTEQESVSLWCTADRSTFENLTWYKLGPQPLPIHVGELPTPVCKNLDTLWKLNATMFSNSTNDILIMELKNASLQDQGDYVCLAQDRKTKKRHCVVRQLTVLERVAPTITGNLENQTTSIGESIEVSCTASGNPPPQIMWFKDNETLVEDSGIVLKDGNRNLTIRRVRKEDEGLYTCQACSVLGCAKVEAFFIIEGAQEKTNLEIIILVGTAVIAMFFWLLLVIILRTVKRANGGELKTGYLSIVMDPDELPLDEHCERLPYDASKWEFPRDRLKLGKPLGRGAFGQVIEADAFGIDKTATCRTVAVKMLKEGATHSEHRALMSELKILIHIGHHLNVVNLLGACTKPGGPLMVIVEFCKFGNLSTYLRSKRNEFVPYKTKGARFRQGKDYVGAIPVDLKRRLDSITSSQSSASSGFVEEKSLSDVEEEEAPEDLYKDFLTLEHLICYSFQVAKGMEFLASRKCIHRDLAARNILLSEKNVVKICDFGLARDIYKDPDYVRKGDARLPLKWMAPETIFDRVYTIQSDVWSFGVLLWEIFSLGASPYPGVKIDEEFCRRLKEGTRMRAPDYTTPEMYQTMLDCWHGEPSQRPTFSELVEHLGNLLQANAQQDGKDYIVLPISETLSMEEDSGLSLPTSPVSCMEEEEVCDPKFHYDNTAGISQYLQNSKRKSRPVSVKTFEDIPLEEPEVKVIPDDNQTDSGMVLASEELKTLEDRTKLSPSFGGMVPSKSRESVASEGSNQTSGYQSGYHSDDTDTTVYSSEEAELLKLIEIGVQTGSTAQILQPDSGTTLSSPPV
Cyclin-dependent kinase 14 (Homo sapiens), sequence (O94921 whole entry): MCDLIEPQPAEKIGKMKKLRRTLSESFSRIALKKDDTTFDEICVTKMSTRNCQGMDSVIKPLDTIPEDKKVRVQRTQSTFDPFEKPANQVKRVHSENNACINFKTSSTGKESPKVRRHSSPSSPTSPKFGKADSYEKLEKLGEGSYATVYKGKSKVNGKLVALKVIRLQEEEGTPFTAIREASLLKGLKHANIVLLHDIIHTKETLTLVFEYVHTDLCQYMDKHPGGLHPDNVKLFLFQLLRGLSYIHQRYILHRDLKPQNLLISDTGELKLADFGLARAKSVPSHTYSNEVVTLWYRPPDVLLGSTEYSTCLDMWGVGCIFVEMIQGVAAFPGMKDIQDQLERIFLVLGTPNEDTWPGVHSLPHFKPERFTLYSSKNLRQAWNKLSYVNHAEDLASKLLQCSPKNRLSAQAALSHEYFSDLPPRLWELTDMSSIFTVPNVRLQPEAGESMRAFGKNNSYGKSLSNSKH

The compound `O=C(NOC[C@H](O)CO)c1ccc(F)c(F)c1Nc1ccc(I)cc1F` came in with a % of control in [1] of 84%.
As to `Nc1cnc(N2CCc3cc(S(=O)(=O)Nc4c(F)cc(Cl)cc4F)cc(N4CCCC4=O)c32)nc1` [TP-020n], the % of control in assay [2] was found to be 100%.
Consider `N#Cc1cccc(-c2c[nH]c3ncnc(N4CCOCC4)c23)c1`, for which the % of control in assay [3] stood at 100%. For the same compound, the % of inhibition in [4] was -3%.
Turning to `CC[C@@H]1[C@H](F)C(=O)N[C@@H]1COc1nccc2cc(C(N)=O)c(OC)cc12` [ZIMLOVISERTIB], the % of inhibition in assay [5] (at 0.01 µM) was 15.9%; in assay [5] (at 0.04 µM), 3.7%; in [5] (at 0.2 µM), 0.2%; in [5] (at 1 µM), -8.2%; in [5] (at 5 µM), 7%.
In turn, `Cc1cc(F)c(C(=O)Nc2cccc(-c3nncn3C(C)C)n2)cc1-n1cnc(C2CC2)c1` showed a % of control in assay [6] of 49%.
Take `C=CC(=O)Nc1cccc(C(=O)Nc2ccc(Nc3cc(-c4[nH]c(SC)nc4C)ccn3)cc2)c1`: the % of control in assay [7] (at 1 µM) is 72%; in assay [7] (at 5 µM) it was 52%; in assay [8] (at 1 µM) it was 71%; in assay [8] (at 5 µM) it was 49%; in [9] (at 1 µM), 77%; in assay [9] (at 5 µM), 47%. Also, the results for the % of control in assay [10] (at 1 µM) and in [10] (at 5 µM) were 80% and 51%, respectively.
In the case of `CCC(=O)N1CCN(c2ccc(-n3c(=O)ccc4cnc5ccc(-c6cnc7ccccc7c6)cc5c43)cc2C(F)(F)F)CC1`, the % of control in assay [11] turned out to be 100%.
Regarding `C=CC(=O)Nc1cc(-n2c(=O)ccc3cnc4ccc(-c5ccc(NS(C)(=O)=O)cc5)cc4c32)ccc1C`, the % of control is 100% in assay [12] (at 1 µM), 71% in assay [12] (at 10 µM), 96% in assay [13] (at 1 µM) and 97% in assay [13] (at 10 µM).
On to `Cc1ccc(-c2ccc3c(ccc4sc5c(c43)NC[C@@H](C)NC5=O)n2)cn1`, for which the % of inhibition in [14] was -8%.
